PubChem BioAssay AID248 (DTP/NCI, 2004)
Several values for one entry are separate records, joined by “and”; a condition that tells them apart may be missing. Equal entries are not always repeated. Toxic doses and inconclusive results are not listed. No stated cut-off is given here; in the data, active means T/C of 150% or more; inactive means T/C below 125%.

Test system: L1210 leukemia ip in BDF1 mice, survival T/C
Assay: NCI In Vivo Anticancer Drug Screen. Data for tumor model L1210 Leukemia (intraperitoneal) in B6D2F1 (BDF1) mice
Conditions: endpoint: mean survival time, higher = longer survival
How it was run: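 Tumor cells were implanted, animals were treated, and survival was followed. The result divides the treated measurement by the vehicle-control measurement.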

[1] = dose: 100.0 mg/kg/injection, schedule: Q01DX001 (ip), vehicle: Klucel (hydroxypropylcellulose) (HPC)
[2] = dose: 100.0 mg/kg/injection, schedule: Q04DX003 (ip), vehicle: Klucel (hydroxypropylcellulose) (HPC)
[3] = dose: 100.0 mg/kg/injection, schedule: Q01DX001 (ip), vehicle: carboxymethylcellulose (CMC)
[4] = dose: 200.0 mg/kg/injection, schedule: Q01DX001 (ip), vehicle: carboxymethylcellulose (CMC)
[5] = dose: 400.0 mg/kg/injection, schedule: Q01DX001 (ip), vehicle: carboxymethylcellulose (CMC)
[6] = dose: 100.0 mg/kg/injection, schedule: Q01DX001 (ip), vehicle: saline
[7] = dose: 200.0 mg/kg/injection, schedule: Q01DX001 (ip), vehicle: saline
[8] = dose: 400.0 mg/kg/injection, schedule: Q01DX001 (ip), vehicle: saline
[9] = dose: 50.0 mg/kg/injection, schedule: Q04DX003 (ip), vehicle: saline
[10] = dose: 100.0 mg/kg/injection, schedule: Q01DX009 (ip), vehicle: Klucel (hydroxypropylcellulose) (HPC)
[11] = dose: 100.0 mg/kg/injection, schedule: Q04DX003 (ip), vehicle: saline
[12] = dose: 200.0 mg/kg/injection, schedule: Q01DX009 (ip), vehicle: Klucel (hydroxypropylcellulose) (HPC)
[13] = dose: 200.0 mg/kg/injection, schedule: Q04DX003 (ip), vehicle: Klucel (hydroxypropylcellulose) (HPC)
[14] = dose: 400.0 mg/kg/injection, schedule: Q01DX009 (ip), vehicle: Klucel (hydroxypropylcellulose) (HPC)
[15] = dose: 400.0 mg/kg/injection, schedule: Q04DX003 (ip), vehicle: Klucel (hydroxypropylcellulose) (HPC)
[16] = dose: 200.0 mg/kg/injection, schedule: Q04DX002 (ip), vehicle: Klucel (hydroxypropylcellulose) (HPC)
[17] = dose: 400.0 mg/kg/injection, schedule: Q04DX002 (ip), vehicle: Klucel (hydroxypropylcellulose) (HPC)
[18] = dose: 100.0 mg/kg/injection, schedule: Q04DX002 (ip), vehicle: Klucel (hydroxypropylcellulose) (HPC)
[19] = dose: 50.0 mg/kg/injection, schedule: Q01DX001 (ip), vehicle: carboxymethylcellulose (CMC)
[20] = dose: 100.0 mg/kg/injection, schedule: Q01DX009 (ip), vehicle: saline
[21] = dose: 200.0 mg/kg/injection, schedule: Q01DX009 (ip), vehicle: saline
[22] = dose: 400.0 mg/kg/injection, schedule: Q01DX009 (ip), vehicle: saline

Measured: T/C

CC(C)(Cl)/N=N/C(C)(C)Cl
inactive: dose: 25.0 mg/kg/injection, schedule: Q01DX001 (ip), vehicle: Klucel (hydroxypropylcellulose) (HPC) 99 % of control | dose: 25.0 mg/kg/injection, schedule: Q04DX003 (ip), vehicle: Klucel (hydroxypropylcellulose) (HPC) 98 % of control | dose: 50.0 mg/kg/injection, schedule: Q01DX001 (ip), vehicle: Klucel (hydroxypropylcellulose) (HPC) 92 % of control | dose: 50.0 mg/kg/injection, schedule: Q04DX003 (ip), vehicle: Klucel (hydroxypropylcellulose) (HPC) 97 % of control | [1] 94 % of control and 95 % of control | [2] 98 % of control

CCCCNc1nc(N)nc(N)c1N=Nc1ccc(Cl)cc1
inactive: [3] 101 % of control | [4] 96 % of control | [5] 98 % of control

CSc1ccccc1N=Cc1c(N)ccc(C)c1C
inactive: dose: 100.0 mg/kg/injection, schedule: Q01DX001 (ip), vehicle: saline with Tween-80 98 % of control | dose: 200.0 mg/kg/injection, schedule: Q01DX001 (ip), vehicle: saline with Tween-80 95 % of control | dose: 400.0 mg/kg/injection, schedule: Q01DX001 (ip), vehicle: saline with Tween-80 98 % of control

CCCC(=O)Oc1ccc(C(C)(C)CC(C)(C)C)cc1
inactive: [6] 94 % of control | [7] 98 % of control | [8] 100 % of control

O=C1NCCO1
inactive: [9] 97 % of control | [10] 103 % of control | [2] 105 % of control | [11] 102 % of control and 106 % of control | [12] 105 % of control | [13] 103 % of control | dose: 200.0 mg/kg/injection, schedule: Q04DX003 (ip), vehicle: saline 95 % of control and 92 % of control and 103 % of control | [14] 103 % of control | [15] 103 % of control | dose: 400.0 mg/kg/injection, schedule: Q04DX003 (ip), vehicle: saline 103 % of control and 105 % of control

COc1ccc(OC)c(NC(=O)Nc2cc([N+](=O)[O-])ccc2C)c1
inactive: [16] 92 % of control | [17] 100 % of control

NCCCCCCCCCCC(=O)O
inactive: [18] 115 % of control | [16] 95 % of control | [17] 101 % of control

CC(=O)COc1ccc(Cl)cc1Cl
inactive: dose: 100.0 mg/kg/injection, schedule: Q01DX009 (ip), vehicle: saline with Tween-80 98 % of control | dose: 200.0 mg/kg/injection, schedule: Q01DX009 (ip), vehicle: saline with Tween-80 97 % of control | dose: 400.0 mg/kg/injection, schedule: Q01DX009 (ip), vehicle: saline with Tween-80 92 % of control

CC(=O)c1ccc(C)c([N+](=O)[O-])c1
inactive: [19] 98 % of control | [3] 91 % of control | [4] 107 % of control | [5] 91 % of control

Cc1ccccc1C(Cc1ccc(N2C(N)=NC(N)=NC2(C)C)cc1)C(=O)Nc1ccc(S(=O)(=O)F)cc1 (stereo not given)
inactive: [2] 98 % of control | [13] 96 % of control | [15] 88 % of control

CCN(CC)CCCCCCNc1ccnc2cc(Cl)ccc12
inactive: [19] 95 % of control

CCN(CC)c1ccc(/C=C/c2ccncc2)cc1
inactive: [10] 93 % of control | [2] 104 % of control | [12] 92 % of control | [13] 96 % of control | [14] 90 % of control | [15] 93 % of control

COc1ccc(OC)c([N+](=O)[O-])c1
inactive: [6] 100 % of control | [10] 100 % of control | [2] 93 % of control | [7] 105 % of control | [12] 94 % of control | [13] 95 % of control | [8] 96 % of control | [14] 88 % of control | [15] 93 % of control

O=C(O)/C=C/C(=O)Nc1ccccc1-n1cccc1
inactive: [20] 106 % of control | [21] 97 % of control

Cc1ccc(NC(=O)Nc2cc([N+](=O)[O-])ccc2C)cc1C
inactive: [2] 88 % of control | [13] 88 % of control | [15] 96 % of control

O=C(Nc1cccc(Cl)c1)Oc1ccc2ccccc2c1
inactive: [20] 90 % of control | dose: 100.0 mg/kg/injection, schedule: Q04DX004 (ip), vehicle: saline 104 % of control | [21] 101 % of control | dose: 200.0 mg/kg/injection, schedule: Q04DX004 (ip), vehicle: saline 90 % of control | [22] 101 % of control | dose: 400.0 mg/kg/injection, schedule: Q04DX004 (ip), vehicle: saline 98 % of control

O=Nc1[nH]c(O)c2ccccc12
inactive: [2] 97 % of control and 91 % of control | [13] 99 % of control and 103 % of control | [15] 103 % of control and 89 % of control

CCc1[nH]c(=S)nc(-c2ccccc2)c1-c1ccc([N+](=O)[O-])cc1O
inactive: [2] 95 % of control | [13] 100 % of control | [15] 95 % of control

COc1ccc(Oc2ccc(-c3ccccc3)cc2)cc1
inactive: [3] 98 % of control | [4] 102 % of control | [5] 96 % of control

CN(Cc1ccccc1)C(Cc1c[nH]c2ccccc12)C(=O)O (stereo not given)
inactive: dose: 25.0 mg/kg/injection, schedule: Q04DX003 (ip), vehicle: saline 111 % of control | [9] 108 % of control | [6] 100 % of control | [11] 94 % of control | dose: 150.0 mg/kg/injection, schedule: Q04DX003 (ip), vehicle: acetone 91 % of control | dose: 225.0 mg/kg/injection, schedule: Q04DX003 (ip), vehicle: acetone 109 % of control | dose: 335.0 mg/kg/injection, schedule: Q04DX003 (ip), vehicle: acetone 100 % of control

CC(=O)NS(=O)(=O)c1ccc(N=Cc2cc(Cl)cc(Cl)c2O)cc1
inactive: [20] 111 % of control | [21] 102 % of control | [22] 102 % of control

CCOC(=O)c1cc(=O)[nH]c2cc(N)ccc12
inactive: [10] 86 % of control | [12] 89 % of control | [14] 86 % of control

O=C(Nc1cccc(F)c1)OCc1ccco1
inactive: dose: 100.0 mg/kg/injection, schedule: Q01DX009 (sc), vehicle: olive oil, sesame oil, peanut oil 95 % of control | dose: 200.0 mg/kg/injection, schedule: Q01DX009 (sc), vehicle: olive oil, sesame oil, peanut oil 96 % of control | dose: 400.0 mg/kg/injection, schedule: Q01DX009 (sc), vehicle: olive oil, sesame oil, peanut oil 95 % of control

CCCC(=O)Nc1ccc(Cl)c(Cl)c1
inactive: dose: 100.0 mg/kg/injection, schedule: Q04DX003 (ip), vehicle: saline with Tween-80 98 % of control | dose: 200.0 mg/kg/injection, schedule: Q04DX003 (ip), vehicle: saline with Tween-80 102 % of control | dose: 400.0 mg/kg/injection, schedule: Q04DX003 (ip), vehicle: saline with Tween-80 89 % of control

Cc1ccc([N+](=O)[O-])cc1
inactive: [18] 103 % of control | [16] 103 % of control | [17] 95 % of control

Cc1cn(C2CC(O)C(CO)O2)c(=O)[nH]c1=O (stereo not given)
inactive: dose: 50.0 mg/kg/injection, schedule: Q03HX024 (ip), vehicle: saline 100 % of control | dose: 100.0 mg/kg/injection, schedule: Q03HX024 (ip), vehicle: saline 100 % of control | dose: 200.0 mg/kg/injection, schedule: Q03HX024 (ip), vehicle: saline 98 % of control | dose: 400.0 mg/kg/injection, schedule: Q03HX024 (ip), vehicle: saline 100 % of control

O=P(Cc1ccccc1)(Cc1ccccc1)Cc1ccccc1
inactive: [10] 100 % of control | [12] 91 % of control | [14] 96 % of control

Cc1ccccc1C(=O)c1ccccc1C
inactive: dose: 50.0 mg/kg/injection, schedule: Q01DX001 (ip), vehicle: other 118 % of control | dose: 100.0 mg/kg/injection, schedule: Q01DX001 (ip), vehicle: other 102 % of control | dose: 200.0 mg/kg/injection, schedule: Q01DX001 (ip), vehicle: other 113 % of control | dose: 400.0 mg/kg/injection, schedule: Q01DX001 (ip), vehicle: other 107 % of control

OCc1ccccc1O
inactive: dose: 50.0 mg/kg/injection, schedule: Q01DX009 (ip), vehicle: Klucel (hydroxypropylcellulose) (HPC) 105 % of control | [1] 100 % of control | [10] 102 % of control | dose: 200.0 mg/kg/injection, schedule: Q01DX001 (ip), vehicle: Klucel (hydroxypropylcellulose) (HPC) 100 % of control | [12] 102 % of control | dose: 400.0 mg/kg/injection, schedule: Q01DX001 (ip), vehicle: Klucel (hydroxypropylcellulose) (HPC) 106 % of control
